Test results as given in patent US11279707B2, “NEK inhibitors and methods of use” (DANA-FARBER CANCER INSTITUTE, INC., priority 2017, dated 2022).

Columns and labels:
Assay type in all cases: biochemical
NEK6 = NEK6 (Homo sapiens, UniProt Q9HC98); assay: kinase inhibition, NEK6
NEK9 = target: T1, NEK9 (Homo sapiens, UniProt Q8TD19); assay: kinase inhibition, NEK9
T1 sequence (Q8TD19 1-979): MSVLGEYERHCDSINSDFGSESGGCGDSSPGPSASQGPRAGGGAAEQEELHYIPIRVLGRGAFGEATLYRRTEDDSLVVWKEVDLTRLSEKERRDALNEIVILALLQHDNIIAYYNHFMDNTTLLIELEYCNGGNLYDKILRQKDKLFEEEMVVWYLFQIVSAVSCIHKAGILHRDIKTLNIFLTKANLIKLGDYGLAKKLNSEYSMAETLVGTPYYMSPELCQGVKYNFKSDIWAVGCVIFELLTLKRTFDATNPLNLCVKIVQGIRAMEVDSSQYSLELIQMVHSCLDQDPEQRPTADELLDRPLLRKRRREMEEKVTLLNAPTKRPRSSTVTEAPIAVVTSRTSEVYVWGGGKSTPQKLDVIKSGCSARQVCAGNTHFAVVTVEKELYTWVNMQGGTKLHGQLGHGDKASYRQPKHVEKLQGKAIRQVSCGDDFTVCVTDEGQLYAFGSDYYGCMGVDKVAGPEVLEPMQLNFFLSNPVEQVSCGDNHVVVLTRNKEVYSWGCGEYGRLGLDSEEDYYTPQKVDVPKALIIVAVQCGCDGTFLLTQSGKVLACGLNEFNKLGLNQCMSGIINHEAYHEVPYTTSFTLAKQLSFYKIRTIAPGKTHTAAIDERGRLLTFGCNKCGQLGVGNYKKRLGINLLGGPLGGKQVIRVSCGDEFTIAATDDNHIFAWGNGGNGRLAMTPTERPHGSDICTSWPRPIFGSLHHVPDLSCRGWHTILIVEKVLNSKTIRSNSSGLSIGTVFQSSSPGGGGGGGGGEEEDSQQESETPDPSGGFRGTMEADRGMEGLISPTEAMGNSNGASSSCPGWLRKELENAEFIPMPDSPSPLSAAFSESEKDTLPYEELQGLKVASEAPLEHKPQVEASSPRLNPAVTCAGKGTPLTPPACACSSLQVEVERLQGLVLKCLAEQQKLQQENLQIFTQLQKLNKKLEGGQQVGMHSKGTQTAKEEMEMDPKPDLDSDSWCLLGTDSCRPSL

SLK = SLK (Homo sapiens, UniProt Q9H2G2); assay: kinase inhibition, SLK
GSK3B = GSK3B (Homo sapiens, UniProt P49841); assay: kinase inhibition, GSK3B
GRK4 = GRK4 (Homo sapiens, UniProt P32298); assay: kinase inhibition, GRK4
DRAK1 = target: T2, DRAK1 (Homo sapiens, UniProt Q9UEE5); assay: kinase inhibition, DRAK1
T2 sequence (Q9UEE5 1-414): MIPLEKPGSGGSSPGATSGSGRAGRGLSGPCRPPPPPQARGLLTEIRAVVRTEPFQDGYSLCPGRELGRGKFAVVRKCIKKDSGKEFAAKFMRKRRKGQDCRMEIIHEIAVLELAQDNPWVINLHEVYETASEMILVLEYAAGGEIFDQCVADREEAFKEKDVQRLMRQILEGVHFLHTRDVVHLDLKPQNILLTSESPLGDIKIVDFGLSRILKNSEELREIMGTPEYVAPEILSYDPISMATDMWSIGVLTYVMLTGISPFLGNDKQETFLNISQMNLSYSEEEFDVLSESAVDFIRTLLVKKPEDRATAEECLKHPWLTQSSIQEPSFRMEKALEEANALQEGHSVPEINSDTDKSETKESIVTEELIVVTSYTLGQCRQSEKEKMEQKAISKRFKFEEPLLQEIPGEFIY

RSK1 = RSK1 (Homo sapiens, UniProt Q15418); assay: kinase inhibition, RSK1
Sequence of RSK1 (Q15418 whole entry, species assumed): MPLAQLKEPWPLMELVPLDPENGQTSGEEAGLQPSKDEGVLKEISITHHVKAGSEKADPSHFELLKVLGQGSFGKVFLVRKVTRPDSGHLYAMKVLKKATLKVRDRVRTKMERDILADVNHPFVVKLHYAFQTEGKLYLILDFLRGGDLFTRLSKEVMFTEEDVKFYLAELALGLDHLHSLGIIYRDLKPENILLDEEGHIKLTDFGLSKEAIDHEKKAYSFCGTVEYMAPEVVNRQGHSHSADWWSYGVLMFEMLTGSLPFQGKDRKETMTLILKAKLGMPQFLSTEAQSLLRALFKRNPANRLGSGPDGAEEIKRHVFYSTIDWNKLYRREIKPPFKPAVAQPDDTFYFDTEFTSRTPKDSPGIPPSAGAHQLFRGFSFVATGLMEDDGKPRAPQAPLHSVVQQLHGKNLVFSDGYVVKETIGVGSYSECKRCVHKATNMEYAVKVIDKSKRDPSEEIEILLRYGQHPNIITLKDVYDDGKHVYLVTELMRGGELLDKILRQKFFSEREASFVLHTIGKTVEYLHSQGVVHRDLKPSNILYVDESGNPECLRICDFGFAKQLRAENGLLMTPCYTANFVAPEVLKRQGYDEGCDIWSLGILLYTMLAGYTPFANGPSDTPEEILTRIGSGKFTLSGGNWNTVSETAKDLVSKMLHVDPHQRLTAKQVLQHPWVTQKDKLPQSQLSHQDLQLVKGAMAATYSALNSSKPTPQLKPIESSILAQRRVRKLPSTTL

Sequence of NEK6 (Q9HC98 whole entry, species assumed): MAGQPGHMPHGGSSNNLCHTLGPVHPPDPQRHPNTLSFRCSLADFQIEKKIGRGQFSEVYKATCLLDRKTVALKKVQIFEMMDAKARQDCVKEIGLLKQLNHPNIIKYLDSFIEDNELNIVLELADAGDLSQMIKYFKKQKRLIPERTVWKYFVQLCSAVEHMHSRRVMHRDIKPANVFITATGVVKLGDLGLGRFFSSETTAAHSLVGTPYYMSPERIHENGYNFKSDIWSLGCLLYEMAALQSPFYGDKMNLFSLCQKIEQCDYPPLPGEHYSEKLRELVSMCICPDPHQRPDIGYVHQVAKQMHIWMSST
Sequence of GSK3B (P49841 whole entry, species assumed): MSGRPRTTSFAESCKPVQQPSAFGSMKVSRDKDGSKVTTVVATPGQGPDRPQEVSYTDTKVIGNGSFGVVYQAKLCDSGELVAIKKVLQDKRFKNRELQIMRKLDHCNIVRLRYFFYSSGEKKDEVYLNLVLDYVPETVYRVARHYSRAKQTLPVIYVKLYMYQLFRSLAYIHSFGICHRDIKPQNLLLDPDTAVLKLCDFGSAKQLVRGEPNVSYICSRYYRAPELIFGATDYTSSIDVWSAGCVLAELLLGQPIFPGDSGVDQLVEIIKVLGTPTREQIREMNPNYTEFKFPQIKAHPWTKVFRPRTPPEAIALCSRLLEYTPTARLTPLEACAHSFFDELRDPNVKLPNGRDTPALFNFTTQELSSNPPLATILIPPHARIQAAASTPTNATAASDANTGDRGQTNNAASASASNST
Sequence of SLK (Q9H2G2 whole entry): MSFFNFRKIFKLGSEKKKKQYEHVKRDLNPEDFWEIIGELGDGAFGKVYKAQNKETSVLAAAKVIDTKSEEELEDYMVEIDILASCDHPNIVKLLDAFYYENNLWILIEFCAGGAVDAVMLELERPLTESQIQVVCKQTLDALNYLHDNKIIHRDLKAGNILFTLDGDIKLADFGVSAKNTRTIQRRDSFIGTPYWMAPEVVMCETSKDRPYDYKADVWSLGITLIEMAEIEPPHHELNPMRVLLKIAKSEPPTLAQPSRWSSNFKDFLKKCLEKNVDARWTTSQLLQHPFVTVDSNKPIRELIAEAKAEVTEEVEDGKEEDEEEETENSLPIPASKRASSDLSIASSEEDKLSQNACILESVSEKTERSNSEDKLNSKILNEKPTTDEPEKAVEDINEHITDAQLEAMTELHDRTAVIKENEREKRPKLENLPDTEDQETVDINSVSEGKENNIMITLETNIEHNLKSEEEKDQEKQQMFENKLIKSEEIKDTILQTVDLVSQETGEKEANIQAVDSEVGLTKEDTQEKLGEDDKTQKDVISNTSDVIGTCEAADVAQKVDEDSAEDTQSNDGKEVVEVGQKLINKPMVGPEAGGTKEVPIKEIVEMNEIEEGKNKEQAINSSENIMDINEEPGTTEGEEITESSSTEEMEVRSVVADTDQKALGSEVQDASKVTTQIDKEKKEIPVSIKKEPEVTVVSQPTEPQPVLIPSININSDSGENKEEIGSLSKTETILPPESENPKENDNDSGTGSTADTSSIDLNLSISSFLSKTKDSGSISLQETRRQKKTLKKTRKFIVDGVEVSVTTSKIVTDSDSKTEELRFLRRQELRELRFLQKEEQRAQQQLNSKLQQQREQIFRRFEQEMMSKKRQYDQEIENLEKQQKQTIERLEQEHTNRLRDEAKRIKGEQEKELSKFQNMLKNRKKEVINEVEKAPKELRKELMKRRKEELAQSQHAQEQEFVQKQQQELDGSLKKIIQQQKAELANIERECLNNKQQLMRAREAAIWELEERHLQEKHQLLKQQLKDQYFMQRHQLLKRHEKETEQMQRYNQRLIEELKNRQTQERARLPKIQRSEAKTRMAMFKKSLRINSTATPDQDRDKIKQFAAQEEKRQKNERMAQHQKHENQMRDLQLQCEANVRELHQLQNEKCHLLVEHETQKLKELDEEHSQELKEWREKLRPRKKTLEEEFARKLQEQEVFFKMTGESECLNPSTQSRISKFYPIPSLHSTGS
Sequence of GRK4 (P32298 whole entry, species assumed): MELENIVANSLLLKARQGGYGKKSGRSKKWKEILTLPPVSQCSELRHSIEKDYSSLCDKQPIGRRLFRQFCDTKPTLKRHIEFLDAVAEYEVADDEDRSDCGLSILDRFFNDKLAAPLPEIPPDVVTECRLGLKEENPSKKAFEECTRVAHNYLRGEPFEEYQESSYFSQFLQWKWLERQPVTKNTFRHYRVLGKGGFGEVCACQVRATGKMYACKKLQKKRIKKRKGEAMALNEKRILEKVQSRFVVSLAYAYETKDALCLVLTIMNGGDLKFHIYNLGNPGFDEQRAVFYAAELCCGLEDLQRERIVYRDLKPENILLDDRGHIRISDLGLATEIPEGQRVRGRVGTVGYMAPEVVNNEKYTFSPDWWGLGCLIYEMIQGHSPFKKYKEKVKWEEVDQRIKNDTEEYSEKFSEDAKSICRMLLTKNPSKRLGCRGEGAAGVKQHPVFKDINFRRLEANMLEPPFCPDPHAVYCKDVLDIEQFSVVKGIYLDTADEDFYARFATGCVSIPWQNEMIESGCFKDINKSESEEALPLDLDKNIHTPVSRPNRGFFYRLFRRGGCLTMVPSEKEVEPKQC

IC50 (NEK6)	IC50 (SLK)	IC50 (GSK3B)	IC50 (GRK4)	IC50 (DRAK1)	IC50 (RSK1)	Structure (SMILES)	IC50 (NEK9)
50 to 250 nM	50 to 250 nM	250 to 1000 nM	1000 to 5000 nM	50 to 250 nM	50 to 250 nM	CN1CCN(c2ccc(Nc3ncc4c(n3)n3c(cc5ccccc53)c(=O)n4C)cc2)CC1 [Compound I-1]	≤ 50 nM
250 to 1000 nM	1000 to 5000 nM	1000 to 5000 nM		50 to 250 nM	1000 to 5000 nM	COc1cc(N2CCC(O)CC2)ccc1Nc1ncc2c(n1)n1c(cc3ccccc31)c(=O)n2C [Compound I-2]	50 to 250 nM
50 to 250 nM	1000 to 5000 nM	1000 to 5000 nM		50 to 250 nM	250 to 1000 nM	COc1cc(N2CCN(C)CC2)ccc1Nc1ncc2c(n1)n1c(cc3ccccc31)c(=O)n2C [Compound I-3]	50 to 250 nM
1000 to 5000 nM	1000 to 5000 nM	≥ 5000 nM		1000 to 5000 nM	250 to 1000 nM	COc1cc(C(=O)N2CCC(N3CCN(C)CC3)CC2)ccc1Nc1ncc2c(n1)n1c(cc3ccccc31)c(=O)n2C [Compound I-4]	250 to 1000 nM
≥ 5000 nM	250 to 1000 nM	≥ 5000 nM		250 to 1000 nM	1000 to 5000 nM	CN1CCN(c2ccc(Nc3ncc4c(n3)n3c(cc5ccccc53)c(=O)n4C)cc2C(F)(F)F)CC1 [Compound I-5]	50 to 250 nM
250 to 1000 nM	1000 to 5000 nM	≥ 5000 nM		250 to 1000 nM	50 to 250 nM	COc1cc(C2CCN(C)CC2)ccc1Nc1ncc2c(n1)n1c(cc3ccccc31)c(=O)n2C [Compound I-6]	50 to 250 nM
